Values quoted from earlier work as cited in patent US6974665B2, “In situ screening to optimize variables in organic reactions” (University of Nebraska, priority 2001, dated 2005).

What was measured:
cystathionine γ-synthase = molecular target: T1, cystathionine γ-synthase (Nicotiana tabacum, UniProt Q9ZPL5); conditions: tight-binding reversible inhibitor
T1 sequence (Q9ZPL5 79-540): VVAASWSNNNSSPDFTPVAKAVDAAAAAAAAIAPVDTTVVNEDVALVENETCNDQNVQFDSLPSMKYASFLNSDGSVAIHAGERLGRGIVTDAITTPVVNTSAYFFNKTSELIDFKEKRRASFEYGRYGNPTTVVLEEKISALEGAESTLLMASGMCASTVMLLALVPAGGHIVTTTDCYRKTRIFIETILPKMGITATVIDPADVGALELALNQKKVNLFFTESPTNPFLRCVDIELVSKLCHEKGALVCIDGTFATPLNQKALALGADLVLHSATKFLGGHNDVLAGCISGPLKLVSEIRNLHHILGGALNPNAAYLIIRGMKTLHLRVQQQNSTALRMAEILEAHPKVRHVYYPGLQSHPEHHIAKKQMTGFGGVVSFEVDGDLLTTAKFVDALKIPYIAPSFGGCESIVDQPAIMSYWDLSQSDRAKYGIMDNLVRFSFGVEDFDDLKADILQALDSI

threonine synthase = molecular target: T2, threonine synthase (Escherichia coli, UniProt P00934); conditions: irreversible inhibitor
T2 sequence (P00934 1-428): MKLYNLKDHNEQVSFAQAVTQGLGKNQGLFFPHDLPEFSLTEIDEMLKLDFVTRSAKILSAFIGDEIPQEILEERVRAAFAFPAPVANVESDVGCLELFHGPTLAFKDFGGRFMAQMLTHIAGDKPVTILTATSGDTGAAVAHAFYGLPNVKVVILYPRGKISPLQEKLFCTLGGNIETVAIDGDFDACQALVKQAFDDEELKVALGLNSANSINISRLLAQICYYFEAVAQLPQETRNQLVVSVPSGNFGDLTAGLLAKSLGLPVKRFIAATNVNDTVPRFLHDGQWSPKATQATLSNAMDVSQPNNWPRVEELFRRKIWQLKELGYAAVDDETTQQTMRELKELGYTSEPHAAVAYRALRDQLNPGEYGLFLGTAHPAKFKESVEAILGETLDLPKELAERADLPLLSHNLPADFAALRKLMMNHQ

NC(/C=C/CP(=O)(O)O)C(=O)O (stereo not drawn) [APPA, (E)-2-Amino-5-phosphono-3-pentenoic Acid]
Ki (cystathionine γ-synthase): 27 µM | Ki (threonine synthase): 400 µM | kinact (threonine synthase): 0.25 min⁻¹
